Laboratory results as given in patent publication US20250171413A1, “ANTIVIRAL INDOLINYL COMPOUNDS AND USES THEREOF” (Gilead Sciences, Inc., priority 2023, published 2025).
Read-outs that look alike come from different tables or passages of the source.

System: HSV-2 virus (MS strain)
Assay: HSV-2 Cellomics Assay (immunofluorescence of HSV protein gD)
Type: cell-based
Settings: Human alphaherpesvirus 2, HSV-2 (MS strain, MOI 0.06) infected ARPE-19 cells, 16 hours
Protocol: Compounds were tested for their ability to inhibit HSV-2 replication by monitoring the expression of the HSV protein gD using a high-throughput immunofluorescence-based assay. 10-dose, 3-fold serial dilutions of compounds were prepared at starting concentrations of 0.2 or 2 mM in 100% DMSO. 250 nl of compounds were spotted in quadruplicates onto black collagen-coated 384-well microplates with clear bottom (Greiner cat #781956) using a Labcyte ECHO acoustic dispenser. The final starting concentration in the assay was either […]. DMSO (no compound) and pritelivir were included on each microplate as negative and positive controls, respectively.
ARPE-19 cells (ATCC cat #CRL-2302) were maintained DMEM/F-12 Glutamax medium (Thermo Fisher Scientific cat #10565018) supplemented with 10% FBS (Corning cat #35-011-CV) and 1% Penicillin-Streptomycin (cat #30-002-CI). Prior to confluence, cells were transferred to a centrifuge tube and spun for 5 minutes at 1000 rpm. Cells were resuspended in assay medium (DMEM/F-12 Glutamax, 2% FBS, 1% Penicillin-Streptomycin) and counted. Cell density was adjusted to 150,000 cells/ml and infected with HSV-2 virus (MS strain, ATCC cat #VR-540) at a MOI of 0.06 in a 50 ml conical tube for 1 hour under constant rocking. Cells were then spun for 5 minutes at 1000 rpm and the media replaced with assay medium containing either 2% FBS or 10% human serum (EMD Millipore cat #S1-100ML). 50 μl of the infection suspension were added into microplate wells that were pre-spotted with compounds (7,500 cells per well). Plates were incubated for 16 hours at 37° C.
Cell culture medium was aspirated using a Biomek Fx and 50 μl of a paraformaldehyde solution (Electron Microscopy Sciences cat #15712-5) diluted to 4% in DPBS (Corning cat #21-031-CM) were added per well. After a 30-minute incubation at room temperature, plates were washed 4 times with 100 μl/well of PBS using a Biotek plate washer. A 1:500 solution of primary antibody (anti-HSV gD, Virusys cat #P1103) was prepared in permeabilization buffer (Invitrogen cat #00-8333-56) and 50 μl were added into wells. After a 1-hour incubation at room temperature, 50 μl of a 1:1000 solution of secondary antibody (Alexa Fluor 488 goat anti-mouse, Thermo Fisher Scientific cat #A11001) and DAPI (Thermo Fisher Scientific cat #62248) in permeabilization buffer were added into wells and plates were incubated in the dark at room temperature for 1 hour. Plates were washed 4 times again and 50 μl of DPBS were added to all wells prior to sealing the plates with a black adhesive seal. Fluorescence was measured on a Cellomics plate reader.
Data analysis was carried out using the Thermo Scientific HCS Studio software. Briefly, cells were identified using the DAPI nuclear stain and thresholds were set to filter cells out based on shape and size. A second threshold based on green fluorescence intensity (detection of HSV-2 gD) was set to identify HSV-2 infected cells. Data was reported as the average fluorescence intensity of HSV-2 infected cells. EC50 values were defined as the compound concentration that caused a 50% decrease in the average fluorescence intensity and was calculated using a sigmoidal dose-response model to generate curve fits.

[1] = assay medium containing 2% FBS, read-out: EC50-HSV2-FBS
[2] = assay medium containing 10% human serum, read-out: EC50-HSV2-10% Human Serum

| Compound | EC50 [1] [nM] | EC50 [2] [nM] |
| --- | --- | --- |
| CC[S@@](=N)(=O)c1cc2c(cc1F)CCN2C(=O)[C@@H]1Cc2ccc(-c3ccccn3)cc2C1 [Example 2, (R)-ethyl(5-fluoro-1-((R)-5-(pyridin-2-yl)-2,3-dihydro-1H-indene-2-carbonyl)indolin-6-yl)(imino)-λ^6-sulfanone] | 18 | 71 |
| CC[S@](=N)(=O)c1cc2c(cc1F)CCN2C(=O)[C@@H]1Cc2ccc(-c3ccccn3)cc2C1 [Example 3, (S)-ethyl(5-fluoro-1-((R)-5-(pyridin-2-yl)-2,3-dihydro-1H-indene-2-carbonyl)indolin-6-yl)(imino)-λ^6-sulfanone] | 73 | 258 |
| CC[S@](=N)(=O)c1cc2c(cc1F)CCN2C(=O)[C@H]1Cc2cc(-c3ccccn3)ccc2O1 [Example 5, (S)-ethyl(5-fluoro-1-((R)-5-(pyridin-2-yl)-2,3-dihydrobenzofuran-2-carbonyl)indolin-6-yl)(imino)-λ^6-sulfanone] | 178 | 474 |
| CC[S@@](=N)(=O)c1cc2c(cc1F)CCN2C(=O)[C@H]1Cc2cc(-c3ccccn3)ccc2O1 [Example 6, (R)-ethyl(5-fluoro-1-((R)-5-(pyridin-2-yl)-2,3-dihydrobenzofuran-2-carbonyl)indolin-6-yl)(imino)-λ^6-sulfanone] | 40 | 81 |
| CCC[S@@](=N)(=O)c1cc2c(cc1F)CCN2C(=O)[C@@H]1Cc2ccc(-c3ccccn3)cc2C1 [Example 8, (R)-(5-fluoro-1-((R)-5-(pyridin-2-yl)-2,3-dihydro-1H-indene-2-carbonyl)indolin-6-yl)(imino)(propyl)-λ^6-sulfanone] | 16 | 77 |
| CCC[S@](=N)(=O)c1cc2c(cc1F)CCN2C(=O)[C@@H]1Cc2ccc(-c3ccccn3)cc2C1 [Example 9, (S)-(5-fluoro-1-((R)-5-(pyridin-2-yl)-2,3-dihydro-1H-indene-2-carbonyl)indolin-6-yl)(imino)(propyl)-λ^6-sulfanone] | 52 | 218 |
| CCC[S@](=N)(=O)c1cc2c(cc1F)CCN2C(=O)[C@H]1Cc2cc(-c3ccccn3)ccc2O1 [Example 11, (S)-(5-fluoro-1-((R)-5-(pyridin-2-yl)-2,3-dihydrobenzofuran-2-carbonyl)indolin-6-yl)(imino)(propyl)-λ^6-sulfanone] | 124 | 406 |
| CCC[S@@](=N)(=O)c1cc2c(cc1F)CCN2C(=O)[C@H]1Cc2cc(-c3ccccn3)ccc2O1 [Example 12, (R)-(5-fluoro-1-((R)-5-(pyridin-2-yl)-2,3-dihydrobenzofuran-2-carbonyl)indolin-6-yl)(imino)(propyl)-λ^6-sulfanone] | 35 | 98 |
| COCCS(=N)(=O)c1cc2c(cc1F)CCN2C(=O)[C@@H]1Cc2ccc(-c3ccccn3)cc2C1 (stereo partly drawn) [Example 13, (5-fluoro-1-((R)-5-(pyridin-2-yl)-2,3-dihydro-1H-indene-2-carbonyl)indolin-6-yl)(imino)(2-methoxyethyl)-16-sulfanone] | 31 | 55 |
| COCC[S@@](=N)(=O)c1cc2c(cc1F)CCN2C(=O)[C@@H]1Cc2ccc(-c3ccccn3)cc2C1 [Example 14, (R)-(5-fluoro-1-((R)-5-(pyridin-2-yl)-2,3-dihydro-1H-indene-2-carbonyl)indolin-6-yl)(imino)(2-methoxyethyl)-λ^6-sulfanone] | 25 | 54 |
| COCC[S@](=N)(=O)c1cc2c(cc1F)CCN2C(=O)[C@@H]1Cc2ccc(-c3ccccn3)cc2C1 [Example 15, (S)-(5-fluoro-1-((R)-5-(pyridin-2-yl)-2,3-dihydro-1H-indene-2-carbonyl)indolin-6-yl)(imino)(2-methoxyethyl)-λ6-sulfanone] | 42 | 87 |
| COCC[S@@](=N)(=O)c1cc2c(cc1F)CCN2C(=O)[C@H]1Cc2cc(-c3ccccn3)ccc2O1 [Example 17, (R)-(5-fluoro-1-((R)-5-(pyridin-2-yl)-2,3-dihydrobenzofuran-2-carbonyl)indolin-6-yl)(imino)(2-methoxyethyl)-λ^6-sulfanone] | 39 | 59 |
| COCC[S@](=N)(=O)c1cc2c(cc1F)CCN2C(=O)[C@H]1Cc2cc(-c3ccccn3)ccc2O1 [Example 18, (S)-(5-fluoro-1-((R)-5-(pyridin-2-yl)-2,3-dihydrobenzofuran-2-carbonyl)indolin-6-yl)(imino)(2-methoxyethyl)-λ^6-sulfanone] | 92 | 208 |
| N=S(=O)(c1cc2c(cc1F)CCN2C(=O)[C@@H]1Cc2ccc(-c3ccccn3)cc2C1)C1CC1 (stereo partly drawn) [Example 19, cyclopropyl(5-fluoro-1-((R)-5-(pyridin-2-yl)-2,3-dihydro-1H-indene-2-carbonyl)indolin-6-yl)(imino)-λ^6-sulfanone] | 56 | 453 |
| N=[S@](=O)(c1cc2c(cc1F)CCN2C(=O)[C@@H]1Cc2ccc(-c3ccccn3)cc2C1)C1CC1 [Example 20, (R)-cyclopropyl(5-fluoro-1-((R)-5-(pyridin-2-yl)-2,3-dihydro-1H-indene-2-carbonyl)indolin-6-yl)(imino)-λ^6-sulfanone] | 33 | 248 |
| N=[S@@](=O)(c1cc2c(cc1F)CCN2C(=O)[C@@H]1Cc2ccc(-c3ccccn3)cc2C1)C1CC1 [Example 21, (S)-cyclopropyl(5-fluoro-1-((R)-5-(pyridin-2-yl)-2,3-dihydro-1H-indene-2-carbonyl)indolin-6-yl)(imino)-λ^6-sulfanone] | 98 | 949 |

Results, then the molecule that gave them:

| EC50 [1] [nM] | EC50 [2] [nM] | Compound |
| --- | --- | --- |
| 211 | 737 | CN=S(C)(=O)c1cc2c(cc1F)CCN2C(=O)[C@@H]1Cc2ccc(-c3ccccn3)cc2C1 (stereo partly drawn) [Example 22, (5-fluoro-1-((R)-5-(pyridin-2-yl)-2,3-dihydro-1H-indene-2-carbonyl)indolin-6-yl)(methyl)(methylimino)-l6-sulfanone] |
| 155 | 522 | CN=[S@](C)(=O)c1cc2c(cc1F)CCN2C(=O)[C@@H]1Cc2ccc(-c3ccccn3)cc2C1 [Example 23, (R)-(5-fluoro-1-((R)-5-(pyridin-2-yl)-2,3-dihydro-1H-indene-2-carbonyl)indolin-6-yl)(methyl)(methylimino)-λ^6-sulfanone] |
| 72 | 203 | CCS(=N)(=O)c1cc2c(cc1F)CC(C)N2C(=O)[C@@H]1Cc2ccc(-c3ccccn3)cc2C1 (stereo partly drawn) [Example 25, ethyl(5-fluoro-2-methyl-1-((R)-5-(pyridin-2-yl)-2,3-dihydro-1H-indene-2-carbonyl)indolin-6-yl)(imino)-λ^6-sulfanone] |
| 30 | 92 | CC[S@@](=N)(=O)c1cc2c(cc1F)C[C@@H](C)N2C(=O)[C@@H]1Cc2ccc(-c3ccccn3)cc2C1 [Example 26, (R)-ethyl((R)-5-fluoro-2-methyl-1-((R)-5-(pyridin-2-yl)-2,3-dihydro-1H-indene-2-carbonyl)indolin-6-yl)(imino)-λ^6-sulfanone] |
| 55 | 113 | CC[S@](=N)(=O)c1cc2c(cc1F)C[C@@H](C)N2C(=O)[C@@H]1Cc2ccc(-c3ccccn3)cc2C1 [Example 27, (S)-ethyl((R)-5-fluoro-2-methyl-1-((R)-5-(pyridin-2-yl)-2,3-dihydro-1H-indene-2-carbonyl)indolin-6-yl)(imino)-λ^6-sulfanone] |
| 5 | 304 | CCNS(=O)(=O)c1cc2c(cc1F)CCN2C(=O)[C@@H]1Cc2ccc(-c3ccccn3)cc2C1 [Example 30, (R)—N-ethyl-5-fluoro-1-(5-(pyridin-2-yl)-2,3-dihydro-1H-indene-2-carbonyl)indoline-6-sulfonamide] |
| 10 | 570 | CCNS(=O)(=O)c1cc2c(cc1F)CCN2C(=O)[C@H]1Cc2cc(-c3ccccn3)ccc2O1 [Example 31, (R)—N-ethyl-5-fluoro-1-(5-(pyridin-2-yl)-2,3-dihydrobenzofuran-2-carbonyl)indoline-6-sulfonamide] |
